Laboratory results published in patent publication US20230124862A1, “BISMUTH THIOL COMPOUNDS AND COMPOSITIONS AND METHODS OF TREATING MICROBIAL CO-INFECTIONS” (Microbion Corporation, priority 2020, published 2023).
Where two headings read alike, the source gives them in different places.

Columns and labels:
[1] = tested on: Pseudomonas aeruginosa; assay: Broth microdilution MIC (Example 12); assay type: cell-based
[2] = tested on: P. aeruginosa; settings: P. aeruginosa isolate 103; CLSI QC range in parenthesis; cited from earlier work
[3] = tested on: Achromobacter spp.; assay: MIC testing of CF isolates; assay type: cell-based
[4] = tested on: Klebsiella pneumoniae; assay: Broth microdilution MIC (Example 12); assay type: cell-based
[5] = tested on: Acinetobacter baumannii; assay: Broth microdilution MIC (Example 12); assay type: cell-based
[6] = tested on: B. multivorans; assay: MIC testing of CF isolates; assay type: cell-based, Burkholderia multivorans; settings: B. multivorans (B. cepacia complex) (BC5b)
[7] = tested on: M. abscessus complex; assay: MIC testing of CF isolates; assay type: cell-based, Mycobacterium abscessus
[8] = tested on: Burkholderia cepacia complex; assay: Checkerboard FIC/FICI assay; assay type: cell-based, Burkholderia spp.; settings: during FIC testing
[9] = tested on: B. cepacia; assay: MIC testing of CF isolates; assay type: cell-based, Burkholderia cepacia; settings: B. cepacia (B. cepacia complex) (BC17)
[10] = tested on: P. aeruginosa; assay: MIC testing of CF isolates and control strain
[11] = tested on: S. maltophilia; assay: MIC testing of CF isolates; assay type: cell-based, Stenotrophomonas maltophilia; settings: S. maltophilia (SM21)
[12] = tested on: Escherichia coli; assay: Broth microdilution MIC (Example 12); assay type: cell-based
[13] = tested on: Burkholderia cepacia complex; assay type: cell-based, Burkholderia spp.; settings: initial MIC testing
[14] = tested on: B. cenocepacia; assay: MIC testing of CF isolates; assay type: cell-based, Burkholderia cenocepacia
[15] = tested on: P. aeruginosa; settings: P. aeruginosa isolate 103; CLSI QC range in parenthesis; cited from earlier work; remark: listed apart in the source
[16] = tested on: Pseudomonas aeruginosa; settings: P. aeruginosa ATCC 27853; CLSI established QC range; cited from earlier work
[17] = tested on: N. gonorrhoeae; settings: N. gonorrhoeae MMX 683 (ATCC 49226); cited from earlier work
[18] = tested on: DNA synthesis in E. coli ATCC 25922; settings: 16X the MIC

CO/N=C(\C(=O)N[C@@H]1C(=O)N2C(C(=O)O)=C(CSc3nc(=O)c(=O)[nH]n3C)CS[C@H]12)c1csc(N)n1 [Ceftriaxone]
(0.004-0.015) μg/mL: CLSI QC range of MIC [17]

O=C(O)c1cn(C2CC2)c2cc(N3CCNCC3)c(F)cc2c1=O [ciprofloxacin]
89.6%: inhibition of DNA synthesis [18]
